# Experimental data taken from US5849259A, “3-,8-substituted deuteroporphyrin derivatives, pharmaceutical agents containing the latter and process for their production” (priority 1992, dated 1998).
# Key:
# [1] = Tissue concentrations by ICP-AES after 0.1 mmol/kg i.v. in nude mice with subcutaneously implanted colon cancers (HT29, WiDr); assay type: in vivo, nude mice (Balb/c nu/nu)
# Experimental: (§1) a) 9 nude mice (Balb/c nu/nu) with subcutaneously implanted colon cancers (HT29, WiDr) were each administered by i.v. 0.1 mmol/kg of the mesoporphyrin derivative of example 1b (10 mmol/l dissolved in bidistilled water, pH 7.2, 37° C.). After 0.5, 3 and 24 hours the animals were killed and dissected. The tissue concentrations were determined after corresponding working-up (HNO3 conc.) by ICP-AES and calculated for % of the administered dose per gram of tissue net weight.
# e) 9 nude mice (Balb/c nu/nu) with subcutaneously implanted colon cancers (HT29 and WiDr) were each administered by i.v. 0.1 mmol/kg of the deuteroporphyrin derivative of the compound according to example 1c (10 mmol/l dissolved in bidistilled water, pH 7.2, 37° C.). After 0.5, 3 and 24 hours, the animals were killed and dissected. The tissue concentrations were determined after corresponding working-up (HNO3 conc.) by ICP-AES and calculated for % of the administered dose per gram of tissue net weight. Moreover, tissue relaxation times T1 and T2 were determined (Bruker minispec pc 120).
# as §1, with “9” for “a) 9”, “8e” for “1b”, “hours,” for “hours”
# as §1, with “9” for “a) 9”, “0.1.” for “0.1”, “16f” for “1b”, “0.5 and” for “0.5,”, “3” for “3 and 24”
# as §1, with “9” for “a) 9”, “18d” for “1b”, “0.5 and” for “0.5,”, “hours,” for “and 24 hours”
# as §1, with “9” for “a) 9”, “19e” for “1b”, “hours,” for “hours”
# [2] = test system: HT29 colon cancer; experiment: Signal intensity change in tissues of tumor-bearing (HT29 colon cancer) nude mice, Bruker Biospec 2.35 Tesla, MSSE; assay type: in vivo, nude mice (Balb/c nu/nu); settings: 0.05 mmol/kg i.v.; for enhancement, HT29 / enhancement, Kidneys / enhancement, Liver / enhancement, Muscle: time 0 = 100
# Experimental: On a Bruker Biospec nuclear spin tomograph (2.35 Tesla), the al intensity change in various tissues of tumor-bearing (HT29 colon cancer) nude mice (Balb/c nu/nu) was studied after i.v administration of 0.05 mmol/kg of the compound according to example 1c (10 mmol/l, pH 7.2; 37° C. in bidistilled water). The measurement takes place with a multi slice single echo sequence (MSSE). Imaging parameters: TR: 400 ms, TE: 30 ms, layer thickness: 4 mm, number of averages: 4/slice, matrix 256^2. […]
# [3] = Tissue concentrations by ICP-AES 2 hours after 0.1 mmol/kg i.v. in nude mice with implanted carcinomas (HT29, WiDr, MATLu); assay type: in vivo, nude mice (Balb/c nu/nu)
# Experimental: f) 9 nude mice (Balb/c nu/nu) with subcutaneously implanted carcinomas (HT29, WiDr and MATLu) were each administered by i.v. 0.1 mmol/kg of the deuteroporphyrin derivative of example 1c (10 mmol/L dissolved in bidistilled water, pH 7.2, 37° C.). After 2 hours, the animals were killed and dissected. The tissue concentrations were determined after corresponding working-up (HNO3 conc.) by ICP-AES and calculated for % of the administered dose per gram of tissue net weight. Moreover, tissue relaxation times T1 and T2 were determined (Bruker minispec pc 120). To determine the blank readings, control animals were correspondingly studied without KM-administration.
# [4] = Relaxivity; assay type: physicochemical
# [5] = test system: VX-2 carcinoma; experiment: Signal intensity in tissues of tumor-bearing rabbit (VX-2 carcinoma), Siemens Magneton 1.5 Tesla; assay type: in vivo
# Excerpt: On a Siemens Magneton^(R) (1.5 Tesla; 64 MHz), the signal intensity in various tissues of a tumor-bearing rabbit [hare rabbit, Wulf, female, approximately 4 kg body weight (n=3), tumor of VX-2 carcinoma implanted intramuscularly about 3 weeks before the beginning of the test) was studied after the i.v. administration of […] body weight (corresponding to 0.05 mmol/kg of gadolinium) of the compound according to the invention produced according to Example 1c. The measurement took place with the following imaging parameters: T1 -weighted spin echo sequence: TR : 350 ms, TE : 15 ms, layer orientation: coronary, layer thickness 3 mm, number of averages: 4 per layer, field of view: 150 mm, matrix 256^2, 4-6 layers 1 echo per imaging sequence.
# The relative signal intensities in various tissues are represented in FIG. 4. The output signal intensity (=SIprecontrast) in the various tissues was set equal to 1 in each case.
# [6] = 0.0025 mmol/kg i.v. (corresponding to 0.05 mmol/kg of gadolinium)
substance,measurement,setting,value
"N,N'-Bis[9-carboxylato-2,5,8-tris(carboxylatomethyl)-2,5,8-triazanonyl-carbamoyl]-mesoporphyrin-IX-13,17-diamide, digadolinium complex, disodium salt [Example 1c]","tissue concentration, kidneys",[1]; 0.5 hour p.i.,4.06 ± 1.01 % of the administered dose per gram of tissue net weight
same,"tissue concentration, kidneys",[1]; 3 hours p.i.,4.47 ± 1.63 % of the administered dose per gram of tissue net weight
same,"tissue concentration, kidneys",[1]; 24 hours p.i.,4.20 ± 0.27 % of the administered dose per gram of tissue net weight
same,"signal intensity change, tumor and muscle",[2],only a slight change
same,"enhancement, HT29",[2]; 5 min,116 ± 19
same,"enhancement, Kidneys",[2]; 5 min,185 ± 34
same,"enhancement, Liver",[2]; 5 min,122 ± 31
same,"enhancement, Muscle",[2]; 5 min,119 ± 8
same,"signal intensity change, liver tissue",[2]; 5 minutes p.i.,marked signal intensity increase
same,"enhancement, HT29",[2]; 60 min,128 ± 21
same,"enhancement, Kidneys",[2]; 60 min,240 ± 26
same,"enhancement, Liver",[2]; 60 min,164 ± 22
same,"enhancement, Muscle",[2]; 60 min,129 ± 7
same,"enhancement, HT29",[2]; 90 min,148 ± 22
same,"enhancement, Kidneys",[2]; 90 min,248 ± 18
same,"enhancement, Liver",[2]; 90 min,202 ± 37
same,"enhancement, Muscle",[2]; 90 min,143 ± 21
same,"enhancement, HT29",[2]; 120 min,155 ± 30
same,"enhancement, Kidneys",[2]; 120 min,246 ± 6
same,"enhancement, Liver",[2]; 120 min,194 ± 33
same,"enhancement, Muscle",[2]; 120 min,147 ± 17
same,"enhancement, HT29",[2]; 150 min,167 ± 29
same,"enhancement, Kidneys",[2]; 150 min,225 ± 12
same,"enhancement, Liver",[2]; 150 min,197 ± 17
same,"enhancement, Muscle",[2]; 150 min,146 ± 8
same,"enhancement, HT29",[2]; 180 min,161 ± 22
same,"enhancement, Kidneys",[2]; 180 min,212 ± 16
same,"enhancement, Liver",[2]; 180 min,212 ± 9
same,"enhancement, Muscle",[2]; 180 min,157 ± 8
same,tissue concentration in prostate cancer (MATLu) versus colon cancers,"[3]; 2 hours, 0.1 mmol/kg i.v.",greater than in the colon cancers
same,"tissue concentration, kidneys","[3]; HT29 mice, 2 hours",6.23 ± 1.80 % of the administered dose per gram of tissue net weight
same,"tissue concentration, kidneys","[3]; MATLu mice, 2 hours",2.73 ± 0.33 % of the administered dose per gram of tissue net weight
same,"tissue concentration, kidneys","[3]; WiDr mice, 2 hours",4.23 ± 0.19 % of the administered dose per gram of tissue net weight
same,"tissue concentration, HT29 tumor","[3]; mouse, in vivo, iv, 2 h",1.00 ± 0.27 % of the administered dose per gram of tissue net weight
same,"tissue concentration, MATLu tumor","[3]; mouse, in vivo, iv, 2 h",1.92 ± 2.09 % of the administered dose per gram of tissue net weight
same,"tissue concentration, WiDr tumor","[3]; mouse, in vivo, iv, 2 h",0.83 ± 0.05 % of the administered dose per gram of tissue net weight
same,relaxivity,[4],17.86 1 mmol^-1 s^-1
same,"enhancement, implanted tumor",[5]; [6],good long acting enhancement
same,"enhancement, majority of the lymph nodes on the tumor-bearing side",[5]; [6],good long acting enhancement
same,diagnosis of metastasis of the lymph nodes,[5]; confirmed by histological study,a metastasis attack of the lymph nodes could therefore be diagnosed
